The structures appear in SMILES notation. Residues, ends and D or L forms follow the SMILES beside them.

The test system of one test is Blood. In words: Induction of blood clotting in chicken serum free blood corpuscles assessed as blood clotting time at 1.5 mM by hayem-method. Type of test: functional, Gallus gallus.
The subject of the next test is Plasma. In words: Induction of clotting in chicken plasma assessed as thrombin clotting time at 1.5 mM. Format: functional, Gallus gallus.
A short description of test [1]: Induction of platelet aggregation in iv dosed Sprague-Dawley rat model of liver injury assessed as reduction in blood loss measured after 30 mins. Type of test: functional. More on the design: scale not given: the % may be the effect or the level left. The conditions noted are these: 0.5 h.

Regarding `CC(C)C[C@H](NC(=O)[C@H](Cc1cnc[nH]1)NC(=O)[C@H](Cc1cnc[nH]1)NC(=O)[C@H](CCC(N)=O)NC(=O)[C@@H](N)CCC(N)=O)C(=O)NCC(=O)NCC(=O)N[C@@H](C)C(=O)N[C@@H](CCCCN)C(=O)N[C@@H](CCC(N)=O)C(=O)N[C@@H](C)C(=O)NCC(=O)N[C@@H](CC(=O)O)C(=O)N[C@H](C(=O)O)C(C)C` (H-QQHHLGGAKQAGDV-OH), the Time in the test with Blood is recorded as 51 s; with Plasma it was 35 s.
Consider `CC(C)C[C@H](NC(=O)[C@@H](NC(=O)[C@@H](N)CCCNC(=N)N)[C@@H](C)O)C(=O)N[C@@H](C)C(=O)N[C@@H](Cc1ccccc1)C(=O)N[C@H](C(=O)N[C@@H](CCCNC(=N)N)C(=O)N1CCC[C@H]1C(=O)N[C@@H](CCCCN)C(=O)O)C(C)C` (H-RTLAFVRPK-OH), for which the Activity in test [1] turned out to be 60%.

These data come from ChEMBL document CHEMBL4811217, “Peptide-based topical agents and intravenous hemostat for rapid hemostasis” (2020).
